# According to US12471596B2 (priority 2019, dated 2025):
# Tested on: Phytophthora infestans
# Assay: microbe, parasite or virus in culture
# Format: cell-based
# Conditions: in Secale cereale, 168 h, read-out: control compared to the untreated check
row,Structure (SMILES),inhibition of growth at 30 ppm [%]
1,"COc1cc(OCC(=O)N2CCC(c3nc(C4=NOC(c5c(Cl)cccc5OS(C)(=O)=O)C4)cs3)CC2)ncn1 (stereo not shown) [Compound 160, 3-chloro-2-(3-(2-(1-(2-((6-methoxypyrimidin-4-yl)oxy)acetyl)piperidin-4-yl)thiazol-4-yl)-4,5-dihydroisoxazol-5-yl)phenyl methanesulfonate]",≥ 70
2,"CSc1nccnc1OCC(=O)N1CCC(c2nc(C3=NOC(c4c(F)cccc4F)C3)cs2)CC1 (stereo not shown) [Compound 140, 1-(4-(4-(5-(2,6-difluorophenyl)-4,5-dihydroisoxazol-3-yl)thiazol-2-yl)piperidin-1-yl)-2-((3-(methylthio)pyrazin-2-yl)oxy)ethan-1-one]",≥ 70
3,"COc1ncc(OCC(=O)N2CCC(c3nc(C4=NOC(c5c(Cl)cc(Cl)cc5Cl)C4)cs3)CC2)cn1 (stereo not shown) [Compound 133, 2-((2-methoxypyrimidin-5-yl)oxy)-1-(4-(4-(5-(2,4,6-trichlorophenyl)-4,5-dihydroisoxazol-3-yl)thiazol-2-yl)piperidin-1-yl)ethan-1-one]",≥ 70
4,"O=C(COc1cnc(C(F)(F)F)cn1)N1CCC(c2nc(C3=NOC(c4c(Cl)cccc4C(F)(F)F)C3)cs2)CC1 (stereo not shown) [Compound 69, 1-(4-(4-(5-(2-chloro-6-(trifluoromethyl)phenyl)-4,5-dihydroisoxazol-3-yl)thiazol-2-yl)piperidin-1-yl)-2-((5-(trifluoromethyl)pyrazin-2-yl)oxy)ethan-1-one]",≥ 70
5,"O=C(COc1ccnc(C(F)(F)F)n1)N1CCC(c2nc(C3=NOC(c4c(Cl)cc(Cl)cc4Cl)C3)cs2)CC1 (stereo not shown) [Compound 19, 1-(4-(4-(5-(2,4,6-trichlorophenyl)-4,5-dihydroisoxazol-3-yl)thiazol-2-yl)piperidin-1-yl)-2-((2-(trifluoromethyl)pyrimidin-4-yl)oxy)ethan-1-one]",≥ 70
6,"CSc1nccnc1OCC(=O)N1CCC(c2nc(C3=NOC(c4c(Cl)cccc4C(F)(F)F)C3)cs2)CC1 (stereo not shown) [Compound 143, 1-(4-(4-(5-(2-chloro-6-(trifluoromethyl)phenyl)-4,5-dihydroisoxazol-3-yl)thiazol-2-yl)piperidin-1-yl)-2-((3-(methylthio)pyrazin-2-yl)oxy)ethan-1-one]",≥ 70
7,"COc1cncnc1OCC(=O)N1CCC(c2nc(C3=NOC(c4c(Cl)cc(Cl)cc4Cl)C3)cs2)CC1 (stereo not shown) [Compound 75, 2-((5-methoxypyrimidin-4-yl)oxy)-1-(4-(4-(5-(2,4,6-trichlorophenyl)-4,5-dihydroisoxazol-3-yl)thiazol-2-yl)piperidin-1-yl)ethan-1-one]",≥ 70
8,"COc1cncc(OCC(=O)N2CCC(c3nc(C4=NOC(c5c(Cl)cccc5C(F)(F)F)C4)cs3)CC2)n1 (stereo not shown) [Compound 102, 1-(4-(4-(5-(2-chloro-6-(trifluoromethyl)phenyl)-4,5-dihydroisoxazol-3-yl)thiazol-2-yl)piperidin-1-yl)-2-((6-methoxypyrazin-2-yl)oxy)ethan-1-one]",≥ 70
9,"COc1cncc(OCC(=O)N2CCC(c3nc(C4=NOC(c5c(F)cccc5Cl)C4)cs3)CC2)n1 (stereo not shown) [Compound 101, 1-(4-(4-(5-(2-chloro-6-fluorophenyl)-4,5-dihydroisoxazol-3-yl)thiazol-2-yl)piperidin-1-yl)-2-((6-methoxypyrazin-2-yl)oxy)ethan-1-one]",≥ 70
10,"CSc1nccnc1OCC(=O)N1CCC(c2nc(C3=NOC(c4c(F)cccc4Br)C3)cs2)CC1 (stereo not shown) [Compound 141, 1-(4-(4-(5-(2-bromo-6-fluorophenyl)-4,5-dihydroisoxazol-3-yl)thiazol-2-yl)piperidin-1-yl)-2-((3-(methylthio)pyrazin-2-yl)oxy)ethan-1-one]",≥ 70
11,"O=C(COc1cc(C(F)(F)F)ncn1)N1CCC(c2nc(C3=NOC(c4c(F)cccc4F)C3)cs2)CC1 (stereo not shown) [Compound 12, 1-(4-(4-(5-(2,6-difluorophenyl)-4,5-dihydroisoxazol-3-yl)thiazol-2-yl)piperidin-1-yl)-2-((6-(trifluoromethyl)pyrimidin-4-yl)oxy)ethan-1-one]",≥ 70
12,"CS(=O)(=O)Oc1ccc(F)c2c1COC(c1csc(C3CCN(C(=O)COc4ccnc(C(F)(F)F)n4)CC3)n1)OC2 (stereo not shown) [Compound 156, 9-fluoro-3-(2-(1-(2-((2-(trifluoromethyl)pyrimidin-4-yl)oxy)acetyl)piperidin-4-yl)thiazol-4-yl)-1,5-dihydrobenzo[e][1,3]dioxepin-6-yl methanesulfonate]",≥ 70
13,"COc1ncc(OCC(=O)N2CCC(c3nc(C4=NOC(c5c(Cl)cccc5OS(C)(=O)=O)C4)cs3)CC2)cn1 (stereo not shown) [Compound 130, 3-chloro-2-(3-(2-(1-(2-((2-methoxypyrimidin-5-yl)oxy)acetyl)piperidin-4-yl)thiazol-4-yl)-4,5-dihydroisoxazol-5-yl)phenyl methanesulfonate]",≥ 70
14,"CS(=O)(=O)Oc1cccc(Cl)c1C1CC(c2csc(C3CCN(C(=O)COc4cncc(C(F)(F)F)n4)CC3)n2)=NO1 (stereo not shown) [Compound 57, 3-chloro-2-(3-(2-(1-(2-((6-(trifluoromethyl)pyrazin-2-yl)oxy)acetyl)piperidin-4-yl)thiazol-4-yl)-4,5-dihydroisoxazol-5-yl)phenyl methanesulfonate]",≥ 70
15,"COc1ncc(OCC(=O)N2CCC(c3nc(C4=NOC(c5c(F)cccc5F)C4)cs3)CC2)cn1 (stereo not shown) [Compound 139, 1-(4-(4-(5-(2,6-difluorophenyl)-4,5-dihydroisoxazol-3-yl)thiazol-2-yl)piperidin-1-yl)-2-((2-methoxypyrimidin-5-yl)oxy)ethan-1-one]",≥ 70
16,"O=C(COc1nccnc1Cl)N1CCC(c2nc(C3=NOC(c4c(Cl)ccc(F)c4F)C3)cs2)CC1 (stereo not shown) [Compound 111, 1-(4-(4-(5-(6-chloro-2,3-difluorophenyl)-4,5-dihydroisoxazol-3-yl)thiazol-2-yl)piperidin-1-yl)-2-((3-chloropyrazin-2-yl)oxy)ethan-1-one]",≥ 70
17,"COc1ccnc(OCC(=O)N2CCC(c3nc(C4=NOC(c5c(Cl)ccc(F)c5F)C4)cs3)CC2)n1 (stereo not shown) [Compound 63, 1-(4-(4-(5-(6-chloro-2,3-difluorophenyl)-4,5-dihydroisoxazol-3-yl)thiazol-2-yl)piperidin-1-yl)-2-((4-methoxypyrimidin-2-yl)oxy)ethan-1-one]",≥ 70
18,"O=C(COc1cncc(C(F)(F)F)n1)N1CCC(c2nc(C3=NOC(c4c(F)cccc4Cl)C3)cs2)CC1 (stereo not shown) [Compound 53, 1-(4-(4-(5-(2-chloro-6-fluorophenyl)-4,5-dihydroisoxazol-3-yl)thiazol-2-yl)piperidin-1-yl)-2-((6-(trifluoromethyl)pyrazin-2-yl)oxy)ethan-1-one]",≥ 70
19,"O=C(COc1cncc(C(F)(F)F)n1)N1CCC(c2nc(C3=NOC(c4c(F)cccc4F)C3)cs2)CC1 (stereo not shown) [Compound 58, 1-(4-(4-(5-(2,6-difluorophenyl)-4,5-dihydroisoxazol-3-yl)thiazol-2-yl)piperidin-1-yl)-2-((6-(trifluoromethyl)pyrazin-2-yl)oxy)ethan-1-one]",≥ 70
20,"COc1nccnc1OCC(=O)N1CCC(c2csc(C3=NOC(c4c(F)cccc4Cl)C3)n2)CC1 (stereo not shown) [Compound 97, 1-(4-(2-(5-(2-chloro-6-fluorophenyl)-4,5-dihydroisoxazol-3-yl)thiazol-4-yl)piperidin-1-yl)-2-((3-methoxypyrazin-2-yl)oxy)ethan-1-one]",≥ 70
21,"CSc1nccnc1OCC(=O)N1CCC(c2nc(C3=NOC(c4cc(Cl)ccc4Cl)C3)cs2)CC1 (stereo not shown) [Compound 149, 1-(4-(4-(5-(2,5-dichlorophenyl)-4,5-dihydroisoxazol-3-yl)thiazol-2-yl)piperidin-1-yl)-2-((3-(methylthio)pyrazin-2-yl)oxy)ethan-1-one]",≥ 70
22,"COc1nc(OC)nc(OCC(=O)N2CCC(c3nc(C4=NOC(c5c(F)cccc5F)C4)cs3)CC2)n1 (stereo not shown) [Compound 109, 1-(4-(4-(5-(2,6-difluorophenyl)-4,5-dihydroisoxazol-3-yl)thiazol-2-yl)piperidin-1-yl)-2-((4,6-dimethoxy-1,3,5-triazin-2-yl)oxy)ethan-1-one]",≥ 70
23,"COc1cncc(OCC(=O)N2CCC(c3nc(C4=NOC(c5c(Cl)cccc5Cl)C4)cs3)CC2)n1 (stereo not shown) [Compound 99, 1-(4-(4-(5-(2,6-dichlorophenyl)-4,5-dihydroisoxazol-3-yl)thiazol-2-yl)piperidin-1-yl)-2-((6-methoxypyrazin-2-yl)oxy)ethan-1-one]",≥ 70
24,"O=C(COc1nccc(C(F)(F)F)n1)N1CCC(c2nc(C3=NOC(c4c(Cl)cccc4Cl)C3)cs2)CC1 (stereo not shown) [Compound 47, 1-(4-(4-(5-(2,6-dichlorophenyl)-4,5-dihydroisoxazol-3-yl)thiazol-2-yl)piperidin-1-yl)-2-((4-(trifluoromethyl)pyrimidin-2-yl)oxy)ethan-1-one]",≥ 70
25,"O=C(CSc1ccc(C(F)(F)F)nn1)N1CCC(c2nc(C3=NOC(c4c(F)cccc4Br)C3)cs2)CC1 (stereo not shown) [Compound 151, 1-(4-(4-(5-(2-bromo-6-fluorophenyl)-4,5-dihydroisoxazol-3-yl)thiazol-2-yl)piperidin-1-yl)-2-((6-(trifluoromethyl)pyridazin-3-yl)thio)ethan-1-one]",≥ 70
26,"COc1ccnc(OCC(=O)N2CCC(c3nc(C4=NOC(c5c(Cl)cccc5C(F)(F)F)C4)cs3)CC2)n1 (stereo not shown) [Compound 82, 1-(4-(4-(5-(2-chloro-6-(trifluoromethyl)phenyl)-4,5-dihydroisoxazol-3-yl)thiazol-2-yl)piperidin-1-yl)-2-((4-methoxypyrimidin-2-yl)oxy)ethan-1-one]",≥ 70
27,"COc1cncnc1OCC(=O)N1CCC(c2nc(C3=NOC(c4c(F)cccc4Cl)C3)cs2)CC1 (stereo not shown) [Compound 74, 1-(4-(4-(5-(2-chloro-6-fluorophenyl)-4,5-dihydroisoxazol-3-yl)thiazol-2-yl)piperidin-1-yl)-2-((5-methoxypyrimidin-4-yl)oxy)ethan-1-one]",≥ 70
28,"COc1cncnc1OCC(=O)N1CCC(c2nc(C3=NOC(c4c(F)cccc4Br)C3)cs2)CC1 (stereo not shown) [Compound 78, 1-(4-(4-(5-(2-bromo-6-fluorophenyl)-4,5-dihydroisoxazol-3-yl)thiazol-2-yl)piperidin-1-yl)-2-((5-methoxypyrimidin-4-yl)oxy)ethan-1-one]",≥ 70
